The target of one data set is NS3 and wt NS4A (Hepatitis C virus genotype 1a, UniProt P27958). The experiment in a line: Inhibition of cleavage of 5A-pNA by NS3 and wt NS4A. It counts as biochemical, HCV. The following applies: for inhibition of cleavage of 5A-pNA by NS3 and wt NS4A: FIG. 12. How it is done:
Again, lower case letters indicate the D-amino acid. Cha represents cyclohexylalanine. The peptides were assayed for inhibition of cleavage of 5A-pNA by NS3 and wt NS4A.

A further data set addresses NS3 protease (Hepatitis C virus genotype 1a, UniProt P27958). In words: Rates of NS3 in the presence of short NS4A peptides. The following applies: substrate 5A-pNA subsaturating; 66 to 360 μM peptide. It counts as biochemical, HCV. How it is done: The ability of the short peptides to activate the NS3 protease was tested at several concentrations between 66 and 360 μM peptide. The concentration of substrate 5A-pNA was subsaturating.

For data set [1], the target named is T1, NS3 (Hepatitis C virus genotype 1a, UniProt P27958). The experiment in a line: Activation of NS3 by mutant NS4A peptides using 5A-pNA as the substrate. It counts as biochemical, HCV. The following applies: for kcat: substrate 5A-pNA, extrapolated to infinite NS4A concentration.
Procedure: (§1) Binding of the peptides was then analyzed by enzyme kinetics to detect whether the mutated NS4A peptides activated NS3-catalysed cleavage of substrates individually. Two NS3 substrates were used: 5ApNA (which contains the P side residues (six of them) of the substrate linked to para-nitroaniline) and 5A/5B (which is the natural cleavage junction that is found between the NS5A and NS5B proteins) using conventional methods (see, e.g., Landro et. al. 1997, Biochemistry 36 p9340-9348; and “Enzyme Kinetics” by Irwin Segel pub: Wiley and Sons, New York 1975 Chapter 5). Values in the tables were obtained by extrapolating the Km and kcat values obtained for substrates at several concentrations of NS4A mutant peptides to infinite NS4A concentration. The Km and kcat values were obtained from double reciprocal plots of initial velocity measurements made at several concentrations of substrate and a constant NS4Aconcentration. Peptide concentrations used in calculations in Table 3 are based on those supplied by the facility that synthesized the peptides at the inventors' direction.
For data set [2], the target named is T1, NS3. The experiment in a line: Activation of NS3 by mutant NS4A peptides using 5A/5B as the substrate. In kind it is biochemical, HCV. As to conditions: substrate 5A/5B; NS3 batch used for wild-type and V23 mutant peptides.
Procedure: as §1
The next data set has as its target T2, HCV NS3 protease domain (Hepatitis C virus genotype 1a, UniProt P27958).
T2 construct: immobilization of the NS3 protease domain on streptavidin coated beads; made in house; host or cells: E. coli
The experiment in a line: FAC-MS (frontal affinity chromatography with in-line MS) binding to immobilized NS3. An excerpt:
An assay using frontal affinity chromatography (FAC) with an in-line mass spectrometer (MS) as described by Schriemer et al. 1998 Agnew. Chem. Int. Ed. 37, 3383-3387 (referred to as FAC-MS) was adapted to identify NS3 protease inhibitors. Briefly, a HCV NS3 protease domain was cloned into a site in a vector that allows for the recombinant NS3 protein to be biotinylated when expressed in E. coli. This provides for immobilization of the NS3 protease domain on streptavidin coated beads which are packed into a miniaturized column. The column is connected in-line to a mass spectrometer. This arrangement facilitates assaying combinatorial compounds individually from a library of peptides for activity in binding the immobilized NS3 protease domain. As the library is continually infused through the column, each compound produces a sigmoidal curve as its elution profile.
The inventors first examined the ability of mutant NS4A peptides to bind to NS3 using the FAC-MS assay described in Example 1. The sequence of the peptides described here is described by the wild-type residue modified, the position of the residue in the wildtype NS4A polypeptide, and the residue substituted at that position. […] “Pen” refers to Penacillamine; “chA” refers to β-cyclohexylalanine; “t” refers to “tert” (so that, for example, “t-L” refers to tert-leucine. […]

The next data set relates to HCV. The following applies: PBMCs from an HCV-infected patient, 4 days, NS3 Western blot; preliminary, first experiment. A general note: Immunoblotting shows a protein as a band on a membrane.

Square brackets hold non-standard residues; d marks the D form. Ends that are not written are not given here. Peptide text beside a SMILES is read from it. Cha = N[C@@H](CC1CCCCC1)C(=O)O; Pen = CC(C)(S)[C@H](N)C(=O)O

What is called kcat is the maximal rate divided by the concentration of active sites. As usually defined, the Kd is the equilibrium constant for the complex coming apart. Low readings indicate a tighter complex, high ones a looser complex. What is called IC50 is the concentration at which inhibition is half-maximal. Read a low IC50 as greater potency.

T2 sequence (P27958 1027-1208): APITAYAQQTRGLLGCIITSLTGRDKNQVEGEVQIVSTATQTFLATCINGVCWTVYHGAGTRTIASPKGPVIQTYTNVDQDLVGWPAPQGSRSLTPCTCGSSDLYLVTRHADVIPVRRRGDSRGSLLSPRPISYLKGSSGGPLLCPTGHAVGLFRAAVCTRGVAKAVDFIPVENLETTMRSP
Sequence of NS3 and wt NS4A (P27958 1027-1207): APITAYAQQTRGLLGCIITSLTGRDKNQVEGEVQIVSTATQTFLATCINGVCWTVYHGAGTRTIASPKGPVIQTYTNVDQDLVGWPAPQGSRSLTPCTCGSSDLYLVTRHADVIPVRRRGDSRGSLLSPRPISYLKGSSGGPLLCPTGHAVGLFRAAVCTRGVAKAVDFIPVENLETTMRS
T1 sequence (P27958 1027-1207): as above
Sequence of NS3 protease (P27958 1027-1207): as above

On to FFW(Cha)vR(Cha)-NH2 [Peptide 5], for which, on NS3 and wt NS4A, the “precipitation in the reaction mixture” value is given as “caused precipitation in the reaction mixture”; the “inhibition of cleavage of 5A-pNA by NS3 and wt NS4A” value (“inhibition of cleavage of 5A-pNA” below) is listed as “inhibited this reaction”.
For “KKGSVVIVGRIVLSGK [Wild-type, KKGSVVIVGRIVLSGK, reference compound]”, the Rate on NS3 protease was determined as 37.4 µmol/min/mg.
Take KKGSCVIVGRIVLSGK [Peptide V23C]: the turnover number (kcat) on NS3 [1] was 0.0197 ± 0.00017 s⁻¹; at NS3 [2], 0.124 ± 0.00033 s⁻¹. This compound also showed a dissociation constant Kd on HCV NS3 protease domain of 4.8 µM.
Regarding `CC[C@H](C)[C@H](NC(=O)[C@H](CC1CCCCC1)NC(=O)[C@H](CCCNC(=N)N)NC(=O)[C@H](NC(=O)[C@H](CC1CCCCC1)NC(=O)[C@@H](N)CCCNC(=N)N)C(C)C)C(=O)N[C@@H](CC1CCCCC1)C(N)=O` [Peptide 3, R(Cha)vR(Cha)I(Cha)-NH2] (H-R[Cha][dV]R[Cha]I[Cha]-NH2; N-terminus assumed), the “inhibition of replication of HCV in tissue culture” value in the data set on HCV is reported as “inhibited replication of HCV in tissue culture”. On NS3 and wt NS4A, the half-inhibitory concentration (IC50) worked out at 163 ± 5 µM; the “inhibition of cleavage of 5A-pNA” value was “inhibited this reaction”.
Consider KKGSFVIVGRIVLSGK [Peptide V23F], for which the “activation of NS3 catalysed cleavage, rank among peptides mutated at the same position” value at NS3 [1] (position 23 or position 26 mutants) was “poorest”. The turnover number (kcat) at NS3 [1] was 0.00782 ± 0.0005 s⁻¹; on NS3 [2] it was 0.0883 ± 0.005 s⁻¹. This compound gave a Kd at HCV NS3 protease domain of 3.7 µM. Besides, the “FAC-MS elution (later elution = more tightly bound to NS3)” value at HCV NS3 protease domain (Val23 substituted NS4A peptides, FIG. 4) is given as “eluted last”.
Compound IVGRIVL [IVGRIVL] returned a Kd at HCV NS3 protease domain of 103 µM. Further, the Rate on NS3 protease came out at 1.80 µmol/min/mg.
As to Ac-DEMEED-OH [Ac-DEMEED-OH], the “FAC-MS elution profile (late elution indicates NS3 binding)” value on HCV NS3 protease domain (Ac-DEMEEX-OH library randomized at P1, FIG. 2) is reported as “eluted very late”. Besides, the “FAC-MS elution time with a known protease inhibitor added to the library” value at HCV NS3 protease domain (competitive assay, FIG. 3) is “shifted forward”.
In the case of VGRIVL, the Rate on NS3 protease stood at 1.70 µmol/min/mg.
VIVGRIVL [VIVGRIVL]: binding on HCV NS3 protease domain was put at a Kd of 88 µM. Besides, the Rate on NS3 protease amounted to 1.76 µmol/min/mg.
W(Cha)vR(Cha)I(Cha)-NH2 [Peptide 1]: on NS3 and wt NS4A, the “precipitation in the reaction mixture” value is “caused precipitation in the reaction mixture”; the “inhibition of cleavage of 5A-pNA” value is “inhibited this reaction”.
On to VVIVGRI [VVIVGRI], for which the Kd on HCV NS3 protease domain was determined as 103 µM. Further, at NS3 protease, the Rate amounted to 1.88 µmol/min/mg.
With KKGSLVIVGRIVLSGK [Peptide V23L], the kcat on NS3 [1] is 0.0157 ± 0.00075 s⁻¹. Besides, at HCV NS3 protease domain, binding was put at a Kd of 5.1 µM.
As for `CC[C@H](C)[C@H](NC(=O)[C@H](CCCNC(=N)N)NC(=O)CNC(=O)[C@@H](NC(=O)[C@@H](NC(=O)[C@@H](NC(=O)[C@@H](NC(=O)[C@H](CO)NC(=O)CNC(=O)[C@H](CCCCN)NC(=O)[C@@H](N)CCCCN)C(C)(C)S)C(C)C)[C@@H](C)CC)C(C)C)C(=O)N[C@H](C(=O)N[C@@H](CC(C)C)C(=O)N[C@@H](CO)C(=O)NCC(=O)N[C@@H](CCCCN)C(=O)O)C(C)C` [Peptide V23Pen] (H-KKGS[Pen]VIVGRIVLSGK-OH; N-terminus and C-terminus assumed), the kcat was 0.0145 ± 0.0015 s⁻¹ on NS3 [1] and 0.113 ± 0.01 s⁻¹ at NS3 [2]. Also, binding at HCV NS3 protease domain was put at a Kd of 4.7 µM.

The values above are taken from patent publication US20030176689A1, “Inhibitors of hepatitis C virus protease” (priority 2001, published 2003).
